Test results taken from publication PMC5537869, “Role of Zucchini and Its Distinctive Components in the Modulation of Degenerative Processes: Genotoxicity, Anti-Genotoxicity, Cytotoxicity and Apoptotic Effects” (Nutrients, 2017).
Where “and” joins values, the source holds several entries; their conditions need not be identical. Identical values can stand only once.

Key:
[1] = system: Drosophila melanogaster transheterozygous larvae; assay: Genotoxicity (single treatment), Drosophila wing spot test (SMART); assay type: in vivo; set-up: key to Mann-Whitney Test: n.s.: non-significant; details: for Mann-Whitney Test: vs negative control
Procedure: (§1) The principles and basic procedures for the Drosophila wing spot test have been described by Graf et al., and in previous works of our group. Two strains of flies carrying wing genetic markers on the left arm of chromosome 3: multiple wing […] used. The transheterozygous larvae were obtained by crossing […] (Third Multiple 3), Bd^S(Beaded […]) virgin females. Hybrid eggs derived from crossing optimally fertile flies were collected over an 8 h period. […] Concurrent negative controls with the solvent alone (water) and positive controls with hydrogen peroxide (120 mM) were also run. Anti-genotoxicity tests were carried out by mixing the mutagen (hydrogen peroxide, 120 mM) with the compounds solution. After emergence, adult flies were collected from the treatment vials and stored in 70% ethanol. The wings of the flies were removed under a stereomicroscope using a pair of entomological tweezers, similar number of males and females-wings were mounted in Faure's solution on microscope slides and inspected, under 400× magnification, for the presence of clones of cells. The mutant clones were classified into three types: […] The appearance of twin spots indicated the recombinogenic activity of the chemotherapeutic agent (Figure 1). The frequencies of spots per fly of treated series were compared with its corresponding negative control series (water) to analyze Somatic Mutation and Recombination Test (SMART) data. For maximum power, statistical analyses were done exclusively for the total number of spots recovered. The non-parametric U test of Mann, Whitney and Wilcoxon was used to avoid weak positive and inconclusive results on SMART and to achieve a well-defined statistical diagnosis whether a given treatment should be regarded as genotoxic or not. The inhibition percentages (IP) were calculated using the total spots per wing with the following formula [16, 36]: IP = ((Genotoxine alone - Genotoxine plus active compound)/Genotoxine alone) × 100

HL60 cells [2] = assay: Cytotoxicity assay, trypan blue exclusion; assay type: cell-based, human; details: for cytotoxic effect (tumoral viability): HL60, 72 h, trypan blue exclusion, at the tested concentrations
Procedure: Therefore, all the cells that exclude the dye are viable. Non-viable cells stained purple-violet, whereas viable ones remained unstained. Trypan blue was added to cell cultures at a 1:1 ratio, and 20 μL of cell suspension was loaded into a Neubauer chamber. The cells were counted under an inverted microscope at 100× magnification. […] Curves are expressed as survival percentage with respect to controls growing at 72 h. All data represent the average of at least three independent experiments.

[3] = system: Drosophila melanogaster transheterozygous larvae; assay: Anti-genotoxicity (combined treatment with hydrogen peroxide 120 mM), Drosophila wing spot test (SMART); assay type: in vivo; set-up: key to Mann-Whitney Test: n.s.: non-significant; details: for Large Spots (>2 Cells) m = 5 / Small Spots (1–2 Cells) m = 2 / Total Spots m = 2 / Twin Spots m = 5 / Mann-Whitney Test: combined treatment with H2O2 120 mM; for Mann-Whitney Test: vs negative control
Procedure: as §1

HL60 cells [4] = assay: Nucleosomal DNA fragmentation assay; assay type: cell-based, human; details: HL60, 5 h, same concentrations as in the cytotoxicity assay, agarose gel
Procedure: The HL60 tumoral cell line was used with the aim of analyse the apoptotic induction. […] A non-treated cells control was included for each experiment. For DNA fragmentation, treated cells were collected, were centrifuged at 4000 rpm for 5 min and washed with PBS. […] The agarose gels were run at 50 V for 90 min in TBE (Tris/Borate/EDTA) buffer and then observed and photographed under UV light. For Annexin V-PI test, Annexin V Apoptosis Detection Kit ([…] Biotech S.L., Cordoba, Spain) was used. Briefly, cells were resuspended in 100 μL of Binding buffer solution 1× and subsequently, 5 μL AnnexinV-FITC (Fluorescein isothiocyanate) and 10 μL propidium iodide were added, and samples were incubated for 10 min at room temperature in darkness, and flow cytometry (Beckman Coulter Inc., Brea, CA, USA) was then used to analyze the rate of apoptosis.

HL60 cells [5] = details: cited from earlier work
Drosophila melanogaster = system: Drosophila melanogaster; set-up: method as in PMID 19937581; details: SMART, 1, 2 and 4 mg/mL; cited from earlier work
HL60 cells [6] = assay: Annexin V-PI apoptosis assay (flow cytometry); assay type: cell-based, human; details: HL60, 5 h, highest concentrations
Procedure: The HL60 tumoral cell line was used with the aim of analyse the apoptotic induction. HL60 cells (1.5 × 10^6 cells) were treated with the same concentrations of the different compounds for 5 h. A non-treated cells control was included for each experiment. For DNA fragmentation, treated cells were collected, were centrifuged at 4000 rpm for 5 min and washed with PBS. The DNA was extracted using a commercial kit (MBL 243, Dominion mbl, Córdoba, Spain) and the resulting total DNA was treated with RNAse in order to eliminate false positive for 30 min at 37 °C. Samples of 1.5 μg of DNA were mixed with loading buffer and loaded onto a pre-solidified 2% agarose gel containing ethidium bromide. The agarose gels were run at 50 V for 90 min in TBE (Tris/Borate/EDTA) buffer and then observed and photographed under UV light. For Annexin V-PI test, Annexin V Apoptosis Detection Kit (Canvax Biotech S.L., Cordoba, Spain) was used. Briefly, cells were resuspended in 100 μL of Binding buffer solution 1× and subsequently, 5 μL AnnexinV-FITC (Fluorescein isothiocyanate) and 10 μL propidium iodide were added, and samples were incubated for 10 min at room temperature in darkness, and flow cytometry (Beckman Coulter Inc., Brea, CA, USA) was then used to analyze the rate of apoptosis.

CC1=C[C@H](O)CC(C)(C)[C@H]1/C=C/C(C)=C/C=C/C(C)=C/C=C/C=C(C)/C=C/C=C(C)/C=C/C1=C(C)C[C@@H](O)CC1(C)C [Lutein, lutein]
Large Spots (>2 Cells) m = 5 ([1]; single treatment, 0.039 μM): 0.08 (3) clones per wing
Small Spots (1–2 Cells) m = 2 ([1]; single treatment, 0.039 μM): 0.15 (6) clones per wing
Total Spots m = 2 ([1]; single treatment, 0.039 μM): 0.23 (9) clones per wing
Twin Spots m = 5 ([1]; single treatment, 0.039 μM): 0.00 (0) clones per wing
Mann-Whitney Test ([1]; single treatment, 0.039 μM): n.s.
Large Spots (>2 Cells) m = 5 ([1]; single treatment, 0.615 μM): 0.08 (3) clones per wing
Small Spots (1–2 Cells) m = 2 ([1]; single treatment, 0.615 μM): 0.33 (13) clones per wing
Total Spots m = 2 ([1]; single treatment, 0.615 μM): 0.45 (18) clones per wing
Twin Spots m = 5 ([1]; single treatment, 0.615 μM): 0.05 (2) clones per wing
Mann-Whitney Test ([1]; single treatment, 0.615 μM): n.s.
Total Spots m = 2 ([1]; single treatment, 0.615 μM, listed as lutein): 0.45 clones per wing
cytotoxic effect (tumoral viability) (HL60 cells [2]): did not observe any cytotoxic effect
Large Spots (>2 Cells) m = 5 ([3]; 0.039 μM): 0.06 (2) clones per wing
Small Spots (1–2 Cells) m = 2 ([3]; 0.039 μM): 0.06 (2) clones per wing
Total Spots m = 2 ([3]; 0.039 μM): 0.13 (4) clones per wing
Twin Spots m = 5 ([3]; 0.039 μM): 0.00 (0) clones per wing
Mann-Whitney Test ([3]; 0.039 μM): n.s.
Large Spots (>2 Cells) m = 5 ([3]; 0.615 μM): 0.16 (5) clones per wing
Small Spots (1–2 Cells) m = 2 ([3]; 0.615 μM): 0.25 (8) clones per wing
Total Spots m = 2 ([3]; 0.615 μM): 0.47 (15) clones per wing
Twin Spots m = 5 ([3]; 0.615 μM): 0.06 (2) clones per wing
Mann-Whitney Test ([3]; 0.615 μM): * (*: significant (p ≤ 0.05))
Total Spots m = 2 ([3]; 0.615 μM, listed as lutein): 0.47 clones per wing
internucleosomal DNA fragmentation ladder pattern (HL60 cells [4]): did not show any internucleosomal fragmentation ladder pattern

OO [H2O2, hydrogen peroxide, reference compound]
Large Spots (>2 Cells) m = 5 ([1]; positive control alone, 120 mM): 0.13 (5) clones per wing
Small Spots (1–2 Cells) m = 2 ([1]; positive control alone, 120 mM): 0.38 (15) clones per wing
Total Spots m = 2 ([1]; positive control alone, 120 mM): 0.52 clones per wing and 0.52 (21) clones per wing
Twin Spots m = 5 ([1]; positive control alone, 120 mM): 0.03 (1) clones per wing
Mann-Whitney Test ([1]; positive control alone, 120 mM): * (*: significant (p ≤ 0.05))

CC1=C(/C=C/C(C)=C/C=C/C(C)=C/C=C/C=C(C)/C=C/C=C(C)/C=C/C2=C(C)CCCC2(C)C)C(C)(C)CCC1 [β-carotene]
ID50 (HL60 cells [5]): 27 µM
Large Spots (>2 Cells) m = 5 ([1]; single treatment, 0.0003 μM): 0.00 (0) clones per wing
Small Spots (1–2 Cells) m = 2 ([1]; single treatment, 0.0003 μM): 0.08 (3) clones per wing
Total Spots m = 2 ([1]; single treatment, 0.0003 μM): 0.08 (3) clones per wing
Twin Spots m = 5 ([1]; single treatment, 0.0003 μM): 0.00 (0) clones per wing
Mann-Whitney Test ([1]; single treatment, 0.0003 μM): n.s.
Large Spots (>2 Cells) m = 5 ([1]; single treatment, 0.0689 μM): 0.03 (1) clones per wing
Small Spots (1–2 Cells) m = 2 ([1]; single treatment, 0.0689 μM): 0.03 (1) clones per wing
Total Spots m = 2 ([1]; single treatment, 0.0689 μM): 0.05 (2) clones per wing
Twin Spots m = 5 ([1]; single treatment, 0.0689 μM): 0.00 (0) clones per wing
Mann-Whitney Test ([1]; single treatment, 0.0689 μM): n.s.
detoxification of the mutation induced by doxorubicin (Drosophila melanogaster): up to 95%
apoptosis by Annexin V/PI versus negative control (HL60 cells [6]): induced apoptosis
inhibition at 0.0003 µM ([3]; Drosophila melanogaster, ip, 0.0003 μM, against H2O2 120 mM, read-out: inhibition percentage (IP) of genotoxicity): 100%
Large Spots (>2 Cells) m = 5 ([3]; 0.0003 μM): 0.00 (0) clones per wing
Small Spots (1–2 Cells) m = 2 ([3]; 0.0003 μM): 0.00 (0) clones per wing
Total Spots m = 2 ([3]; 0.0003 μM): 0.00 (0) clones per wing
Twin Spots m = 5 ([3]; 0.0003 μM): 0.00 (0) clones per wing
Mann-Whitney Test ([3]; 0.0003 μM): n.s.
Large Spots (>2 Cells) m = 5 ([3]; 0.0689 μM): 0.03 (1) clones per wing
Small Spots (1–2 Cells) m = 2 ([3]; 0.0689 μM): 0.08 (3) clones per wing
Total Spots m = 2 ([3]; 0.0689 μM): 0.11 (4) clones per wing
Twin Spots m = 5 ([3]; 0.0689 μM): 0.00 (0) clones per wing
Mann-Whitney Test ([3]; 0.0689 μM): n.s.
internucleosomal DNA fragmentation ladder pattern (HL60 cells [4]): did not show any internucleosomal fragmentation ladder pattern

O=C1OC(C(O)CO)C(=O)C1=O (stereo not drawn) [DHA, dehydroascorbic acid]
Large Spots (>2 Cells) m = 5 ([1]; single treatment, 0.003 mM): 0.03 (1) clones per wing
Small Spots (1–2 Cells) m = 2 ([1]; single treatment, 0.003 mM): 0.10 (4) clones per wing
Total Spots m = 2 ([1]; single treatment, 0.003 mM): 0.13 (5) clones per wing
Twin Spots m = 5 ([1]; single treatment, 0.003 mM): 0.00 (0) clones per wing
Mann-Whitney Test ([1]; single treatment, 0.003 mM): n.s.
Large Spots (>2 Cells) m = 5 ([1]; single treatment, 0.107 mM): 0.03 (1) clones per wing
Small Spots (1–2 Cells) m = 2 ([1]; single treatment, 0.107 mM): 0.15 (6) clones per wing
Total Spots m = 2 ([1]; single treatment, 0.107 mM): 0.18 (7) clones per wing
Twin Spots m = 5 ([1]; single treatment, 0.107 mM): 0.00 (0) clones per wing
Mann-Whitney Test ([1]; single treatment, 0.107 mM): n.s.
Total Spots m = 2 ([1]; single treatment, 0.107 mM, listed as dehydroascorbic acid): 0.18 clones per wing
cytotoxicity (HL60 cells [2]; HL60, 0.7 mM): did not show cytotoxicity
cytotoxic effect (tumoral viability) (HL60 cells [2]): slight cytotoxic activities
Large Spots (>2 Cells) m = 5 ([3]; 0.003 mM): 0.00 (0) clones per wing
Small Spots (1–2 Cells) m = 2 ([3]; 0.003 mM): 0.08 (3) clones per wing
Total Spots m = 2 ([3]; 0.003 mM): 0.08 (3) clones per wing
Twin Spots m = 5 ([3]; 0.003 mM): 0.00 (0) clones per wing
Mann-Whitney Test ([3]; 0.003 mM): n.s.
Large Spots (>2 Cells) m = 5 ([3]; 0.107 mM): 0.03 (1) clones per wing
Small Spots (1–2 Cells) m = 2 ([3]; 0.107 mM): 0.10 (4) clones per wing
Total Spots m = 2 ([3]; 0.107 mM): 0.13 (5) clones per wing
Twin Spots m = 5 ([3]; 0.107 mM): 0.00 (0) clones per wing
Mann-Whitney Test ([3]; 0.107 mM): n.s.
internucleosomal DNA fragmentation ladder pattern (HL60 cells [4]): did not show any internucleosomal fragmentation ladder pattern
